# Patent US6346278B1, “Lipid extract having anti-inflammatory activity” (Pharmalink International Limited, priority 1995, dated 2002)
# Assays:
# [1] = test system: collagen (II)-induced auto-allergic arthritis; experiment: Collagen (II)-induced auto-allergic arthritis; settings: for Rear paw inflammation Day 2 / Rear paw inflammation Day 4: paw inflamed by collagen (II) injection; for Percent Inhibitions Front paw inflam. / Percent Inhibitions Left rear paw / Percent Inhibitions Right rear paw: day 14
# Procedure: Collagen (Type II) induced polyarthritis was induced in female Wistar rats by injection of collagen (II) with a non-arthritogenic adjuvant to sensitise the test animals.
# PCO was given orally after dilution into olive oil (8 mg/ml) and administered at 2.5 ml/kg/day to give 20 mg/kg.
# Prophylactic treatment was from day 1 to day 13 (i.e. total […]) orally (p.o.). […] PCO was diluted into olive oil (6 mg/ml) for p.o. dosing at 2.5 ml/kg/day to give 15 mg/kg, and diluted into olive oil-cineole (17.3 v/v) (10 mg/ml) for t.d. administration at 2 ml/kg/day to give 20 mg/kg.
# Seatone™ was administered p.o. at 300 mg/kg; Nurofen™ was administered p.o. at 50 mg/kg; Na Aurothiomalate (ATM) was administered in 8 doses at 6.3 mg/kg subcutaneously (s.c.).
# Carrageenin paw oedema = experiment: Acute carrageenin paw oedema assay; format: in vivo, rat; settings: for % Inhibition Oedema 1 hr / % Inhibition Oedema 2 hr: 30 mg/kg
# Procedure: Female Wistar rats (180-220 gm) were pre-dosed p.o. or i.p. with test formulations. 40 minutes later they were injected in each rear paw with 0.1 ml saline containing 0.6 mg Na carrageenin. The subsequent paw oedema was quantified by measuring the increase in paw thickness after one and two hours with a screw gauge micrometer. […] [The oedema recedes after three hours with this dose of carrageenin.]
# arthritic rats = experiment: Anti-arthritic assay: adjuvant-induced polyarthritis, treatment days 10-13; format: in vivo; settings: for % Reduction in Inflammation: rear paw thickness day 14 vs control
# Source text: Though more time consuming, this assay is of more value than the acute assay (described above) as it detects not only (i) those anti-inflammatory drugs acting in the acute assay (but often at lower ED50 values) but also (ii) other agents e.g. clobuzarit (CIoZic^R) or lobenzarit (CCA), which obviously have unique arthritis-suppressant properties but are not anti-oedemic/antipyretic or otherwise detectable in acute assays.
# The protocol used is to pre-establish disease by injecting the arthritigen on Day 0, look for first signs of paw inflammation (usually manifest on Days 10-12) and then dose the animals with test materials for four days. Over this period, the paw inflammation in the untreated control animals “blooms” rapidly to reach a near maximum on Day 14. Drugs acting over this time-frame to hold down the paw swelling are certainly anti-symptomatic but rarely disease-ablating. On ceasing treatment, there is usually a recrudescence in symptoms. This however is a positive feature of this assay as it clearly indicates a) the drug has a finite action but gives some idea of its duration of efficacy by the rapidity (or otherwise) of the rebound; and b) the animals with minimal signs of disease on Day 14 reflected a positive drug effect rather than failure to respond to the original arthritigen (i.e. false negatives). An accurate description of this assay is “late prophylaxis”. Obviously by delaying treatment until after Day 14, one can look for “therapeutic activity”, but since changes may be slow or negligible within four days (even with some powerful NSAIDs), collection of adequate data is difficult.
# Details of the protocol used are: inject the arthritigen into the tailbase of female Wistar rats (160-200 gm)=800 mcg heat-killed Mycobact tuberculosis suspended in 0.1 ml squalane in such a fashion as to avoid any blood vessels and to promote optimal drainage into the lymphatics. Ten days later, the animals were weighed, the thickness of the rear paws and tail was measured and signs of inflammation in the forepaws scored on a scale of 0 to 4 +. After dosing with test compounds once daily for four days (i.e. on Days 10 through 13 post-arthritigen), these measurements were repeated on Days 14 and 18 (i.e. after completion of treatment and again after four days rebound) to monitor the arthritis development. […]
# Rats with the first signs of arthritis 10 days after inoculating with mycobacterial arthritogen were then treated orally with the test materials for 4 days only. Effectiveness of the test materials was measured as […] rear paw thickness on day 14 when compared to the control group H.
# [2] = test system: Kaolin-induced paw oedema; experiment: Kaolin-induced paw oedema; format: in vivo, rat; settings: 150 mg/kg p.o., without synergist
# Procedure: Kaolin-induced paw oedema was investigated as a possible assay for PCO since this inflammation is slower developing than that induced with carrageenin (which recedes after three hours). The protocol involves injecting 5 mg kaolin, suspended in water (not saline, in which it aggregates), into each rear paw 40 minutes after dosing the rats with PCO given both p.o. or i.p. as dispersions prepared with 0.02% Tween in either water (p.o.) or saline (i.p.). The paw swelling was then read two hours and five hours after the kaolin injection.
# stomach = experiment: Gastro-toxicity assay; format: in vivo, rat
# Procedure: Gastro toxicity studies were carried out on female Wistar rats with established arthritis initiated with collagen (type II), not on drug therapy. Aspirin and PCO were suspended with 0.04% Tween-20 for oral dosing, after fasting animals overnight. […]
# [3] = 50 mg/kg p.o. x15, prophylactic
# [4] = 50 mg/kg p.o. x15, prophylactic day 1 to day 13
# [5] = with MPL (Misoprostal 0.5 mg/kg p.o.)
# [6] = 6.3 mg/kg s.c. in saline x8, every second day
# [7] = 6.3 mg/kg s.c. x8, every second day
smiles,measurement,setting,value
"CC(C)Cc1ccc(C(C)C(=O)O)cc1 (stereo not shown) [Nurofen, ibuprofen]",% Inhibition Front paw,"[1]; 40 mg/kg, days 8-14",72%
same,% Inhibition Rear L. paw,"[1]; 40 mg/kg, days 8-14",54%
same,% Inhibition Rear R. paw,"[1]; 40 mg/kg, days 8-14",07%
same,Mean Differences Days 8-15 Ft. Paw Inflam.,"[1]; 40 mg/kg, days 8-14",0.7 +
same,Mean Differences Days 8-15 Rear R. Paw,"[1]; 40 mg/kg, days 8-14",1.48 mm
same,Mean Differences Days 8-15 ΔWt,"[1]; 40 mg/kg, days 8-14",+15 gm
same,Mean Differences Days 8-15 Rear L. Paw,"[1]; 40 mg/kg, days 8-14 (7 daily doses), therapeutic",0.82 mm
same,Day 14: Signs arthritis Front paw inflam.,[1]; [3],2.5+
same,Day 14: Signs arthritis Left rear paw,[1]; [3],1.35 mm
same,Day 14: Signs arthritis Right rear paw,[1]; [3],1.72 mm
same,Percent Inhibitions rear paw inflammation Day 2,[1]; [3],(−05) %
same,Percent Inhibitions rear paw inflammation Day 4,[1]; [3],(−20) %
same,ΔWt(0-14),[1]; [3],+12 gm
same,Rear paw inflammation Day 2,[1]; [4],1.48 mm
same,Rear paw inflammation Day 4,[1]; [4],1.52 mm
same,Percent Inhibitions Front paw inflam.,[1]; [3],(−14) %
same,Percent Inhibitions Left rear paw,[1]; [3],32%
same,Percent Inhibitions Right rear paw,[1]; [3],02%
same,Differences Days 15-18 (Rebound) Front paw,"[1]; after 40 mg/kg, days 8-14",1.1+
same,Differences Days 15-18 (Rebound) Rear L. paw,"[1]; after 40 mg/kg, days 8-14",0.38
same,Differences Days 15-18 (Rebound) Rear R. paw,"[1]; after 40 mg/kg, days 8-14",0.38
same,Differences Days 15-18 (Rebound) ΔWt.,"[1]; after 40 mg/kg, days 8-14",+05
same,% Inhibition Oedema 1 hr,Carrageenin paw oedema; [5],56%
same,% Inhibition Oedema 2 hr,Carrageenin paw oedema; [5],58%
same,% Inhibition Oedema 1 hr,Carrageenin paw oedema; without MPL,37%
same,% Inhibition Oedema 2 hr,Carrageenin paw oedema; without MPL,42%
CC(=O)Oc1ccccc1C(=O)O [Aspirin],effective dose in the standard anti-arthritic assay,arthritic rats; adjuvant-induced rat polyarthritis,300 mg/kg
same,% Inhibition Oedema 2 HR,[2]; 2 HR,55%
same,% Inhibition Oedema 5 HR,[2]; 5 HR,51%
same,effect on the stomach (in words),stomach; 300 mg/kg (20 times an effective dose of PCO),considerable gastric damage
same,Gastric lesion index,"stomach; High arthritis with 0.15 N HCl co-administered orally, oral in 0.04% Tween-20",>112
same,Gastric lesion index,"stomach; High arthritis, Day 15, oral in 0.04% Tween-20, fasted overnight",82
same,Gastric lesion index,"stomach; Low arthritis, Day 32, oral in 0.04% Tween-20, fasted overnight",41
same,ED50,"Carrageenin paw oedema; Rattus norvegicus, acute carrageenin assay",~150 mg/kg
"O=C([O-])CC([S-])C(=O)[O-].[Au+].[Na+].[Na+] (stereo not shown) [ATM, sodium aurothiomalate]",Rear paw inflammation Day 2,[1]; [6],1.00 mm
same,Rear paw inflammation Day 4,[1]; [6],0.68 mm
same,Day 14: Signs arthritis Front paw inflam.,[1]; [7],1.3+
same,Day 14: Signs arthritis Left rear paw,[1]; [7],0.47 mm
same,Day 14: Signs arthritis Right rear paw,[1]; [7],0.70 mm
same,Percent Inhibitions rear paw inflammation Day 2,[1]; [7],29%
same,Percent Inhibitions rear paw inflammation Day 4,[1]; [7],46%
same,Percent Inhibitions Front paw inflam.,[1]; [7],41%
same,Percent Inhibitions Left rear paw,[1]; [7],76%
same,Percent Inhibitions Right rear paw,[1]; [7],60%
same,ΔWt(0-14),"[1]; 6.3 mg/kg s.c. x8, weight gain may be misleading (possible incipient kidney damage)",(+24) gm
same,toxic dose,"[1]; s.c. in saline every second day, higher doses were toxic",> 6.3 mg/kg
"COc1ccc2c(c1)c(CC(=O)O)c(C)n2C(=O)c1ccc(Cl)cc1 [Indomethacin, indomethacin]",% Reduction in Inflammation,arthritic rats; 1 mg/kg orally for 4 days,26%
same,% Reduction in Inflammation,arthritic rats; 3 mg/kg orally for 4 days,68%
same,% Reduction in Inflammation,arthritic rats; 5 mg/kg orally for 4 days,83%
